Patent US20140349948A1, “Treatment of Chronic Constipation” (Forest Laboratories Holdings Limited, priority 2009, published 2014)
Residues, ends and D or L forms follow the SMILES beside them.

Tested on: patients with chronic constipation
Assay: Trial 2 four-week Randomized Withdrawal Period
Format: in vivo, human
Parameters: Straining, Change From Baseline, Mean / Abdominal Discomfort, Change From Baseline, Mean / Bloating, Change From Baseline, Mean / Constipation Severity, Change From Baseline, Mean / Global Relief of Constipation Symptoms, Change From Baseline, Mean: scale not given here
Details: for Abdominal Discomfort, Change From Baseline, Mean / Bloating, Change From Baseline, Mean / Constipation Severity, Change From Baseline, Mean / Global Relief of Constipation Symptoms, Change From Baseline, Mean / Stool Consistency (BSFS), Change From Baseline, Mean / Straining, Change From Baseline, Mean / Weekly CSBM Rate, Change From Baseline, Mean / Weekly SBM Rate, Change From Baseline, Mean: RW Period
Protocol: Trial 2 was conducted in 642 patients and was identical to Trial 1 except that Trial 2 also included a four-week Randomized Withdrawal Period, defined below. During the two-week pretreatment (baseline) period, 68 percent of patients in Trial 2 had no CSBMs.
The Randomized Withdrawal (RW) Period is defined as the 4 weeks immediately following the Treatment Period. The beginning of the RW Period coincides with the end of the Treatment Period. Patients who were randomized to linaclotide in the Treatment Period and complete the 12 weeks of the Treatment Period were randomized to treatment with linaclotide or placebo in the RW Period. Patients who were randomized to placebo in the Treatment Period and complete the 12 weeks of the Treatment Period received 133 μg or 266 μg linaclotide in the RW Period.

C[C@@H]1NC(=O)[C@@H]2CCCN2C(=O)[C@H](CC(N)=O)NC(=O)[C@@H]2CSSC[C@H](N)C(=O)N[C@H]3CSSC[C@H](NC1=O)C(=O)N[C@@H]([C@@H](C)O)C(=O)NCC(=O)N[C@H](C(=O)N[C@@H](Cc1ccc(O)cc1)C(=O)O)CSSC[C@H](NC(=O)[C@H](Cc1ccc(O)cc1)NC(=O)[C@H](CCC(=O)O)NC3=O)C(=O)N2 [Linaclotide, Cys1 Cys2 Glu3 Tyr4 Cys5 Cys6 Asn7 Pro8 Ala9 Cys10 Thr11 Gly12 Cys13 Tyr14] (HELM PEPTIDE1{C.C.E.Y.C.C.N.P.A.C.T.G.C.Y}$PEPTIDE1,PEPTIDE1,1:R3-6:R3|PEPTIDE1,PEPTIDE1,2:R3-10:R3|PEPTIDE1,PEPTIDE1,5:R3-13:R3$$$V2.0)
Abdominal Discomfort, Change From Baseline, Mean (133 μg/133 μg (n = 90)): −0.5 | Bloating, Change From Baseline, Mean (133 μg/133 μg (n = 90)): −0.4 | Constipation Severity, Change From Baseline, Mean (133 μg/133 μg (n = 90)): −0.9 | Global Relief of Constipation Symptoms, Change From Baseline, Mean (133 μg/133 μg (n = 90)): −1.3 | Stool Consistency (BSFS), Change From Baseline, Mean (133 μg/133 μg (n = 90)): 1.9 | Straining, Change From Baseline, Mean (133 μg/133 μg (n = 90)): −1.1 | Weekly CSBM Rate, Change From Baseline, Mean (133 μg/133 μg (n = 90)): 2.1 | Weekly SBM Rate, Change From Baseline, Mean (133 μg/133 μg (n = 90)): 3.0 | Abdominal Discomfort, Change From Baseline, Mean (133 μg/Placebo (n = 95)): −0.4 | Bloating, Change From Baseline, Mean (133 μg/Placebo (n = 95)): −0.4 | Constipation Severity, Change From Baseline, Mean (133 μg/Placebo (n = 95)): −0.5 | Global Relief of Constipation Symptoms, Change From Baseline, Mean (133 μg/Placebo (n = 95)): −0.7 | Stool Consistency (BSFS), Change From Baseline, Mean (133 μg/Placebo (n = 95)): 1.0 | Straining, Change From Baseline, Mean (133 μg/Placebo (n = 95)): −0.8 | Weekly CSBM Rate, Change From Baseline, Mean (133 μg/Placebo (n = 95)): 1.0 | Weekly SBM Rate, Change From Baseline, Mean (133 μg/Placebo (n = 95)): 1.2 | Abdominal Discomfort, Change From Baseline, Mean (266 μg/266 μg (n = 90)): −0.7 | Bloating, Change From Baseline, Mean (266 μg/266 μg (n = 90)): −0.6 | Constipation Severity, Change From Baseline, Mean (266 μg/266 μg (n = 90)): −0.9 | Global Relief of Constipation Symptoms, Change From Baseline, Mean (266 μg/266 μg (n = 90)): −1.3 | Stool Consistency (BSFS), Change From Baseline, Mean (266 μg/266 μg (n = 90)): 1.6 | Straining, Change From Baseline, Mean (266 μg/266 μg (n = 90)): −1.3 | Weekly CSBM Rate, Change From Baseline, Mean (266 μg/266 μg (n = 90)): 2.2 | Weekly SBM Rate, Change From Baseline, Mean (266 μg/266 μg (n = 90)): 2.5 | Abdominal Discomfort, Change From Baseline, Mean (266 μg/Placebo (n = 86)): −0.4 | Bloating, Change From Baseline, Mean (266 μg/Placebo (n = 86)): −0.2 | Constipation Severity, Change From Baseline, Mean (266 μg/Placebo (n = 86)): −0.5 | Global Relief of Constipation Symptoms, Change From Baseline, Mean (266 μg/Placebo (n = 86)): −0.8 | Stool Consistency (BSFS), Change From Baseline, Mean (266 μg/Placebo (n = 86)): 0.8 | Straining, Change From Baseline, Mean (266 μg/Placebo (n = 86)): −0.8 | Weekly CSBM Rate, Change From Baseline, Mean (266 μg/Placebo (n = 86)): 0.9 | Weekly SBM Rate, Change From Baseline, Mean (266 μg/Placebo (n = 86)): 1.3 | Abdominal Discomfort, Change From Baseline, Mean (Placebo/266 μg (n = 177)): −0.5 | Bloating, Change From Baseline, Mean (Placebo/266 μg (n = 177)): −0.5 | Constipation Severity, Change From Baseline, Mean (Placebo/266 μg (n = 177)): −1.0 | Global Relief of Constipation Symptoms, Change From Baseline, Mean (Placebo/266 μg (n = 177)): −1.3 | Stool Consistency (BSFS), Change From Baseline, Mean (Placebo/266 μg (n = 177)): 1.9 | Straining, Change From Baseline, Mean (Placebo/266 μg (n = 177)): −1.2 | Weekly CSBM Rate, Change From Baseline, Mean (Placebo/266 μg (n = 177)): 2.1 | Weekly SBM Rate, Change From Baseline, Mean (Placebo/266 μg (n = 177)): 3.7 | bowel and abdominal symptoms and global assessments in patients continuing treatment (Randomized Withdrawal Period): sustained improvements | frequencies of adverse events following discontinuing of treatment (Randomized Withdrawal Period): no evidence of rebound of CC symptoms or increase in the frequencies of adverse events | rebound of CC symptoms following discontinuing of treatment (Randomized Withdrawal Period): no evidence of rebound of CC symptoms | CC symptoms in patients initiating linaclotide treatment (Randomized Withdrawal Period, placebo then linaclotide): marked improvement | incidence of adverse events in patients initiating linaclotide treatment (Randomized Withdrawal Period, versus those receiving linaclotide during first 4 weeks of Treatment Period): similar | CSBM and SBM rates versus baseline rates after withdrawal (linaclotide for 12 weeks, re-randomized to placebo during 4 week withdrawal period): no decreases in CSBM (FIG. 2) or SBM rates (FIG. 3) below the baseline rates
